Measurements from patent US5321024A, “Antiviral pharmaceutical composition for treating lymphocytes” (Godecke Aktiengesellschaft, priority 1991, dated 1994).

How the values were obtained:
[1] = test system: HIV viruses (cell line C8166); test: in vitro anti-HIV protection assay in cell line C8166; format: cell-based
Source text: (§1) This is usually substantially more difficult to protect so, for example, in the case of the use of 3-azide-3'-deoxythymidine (AZT), a 100-fold higher dosage is needed than in the use of the compound of the present invention.
(§2) The above assay is described in the Journal of the National Cancer Institute, Vol. 81, No. 8, Apr. 19, 1989.

HIV viruses = test: CPE cell line assay against p24 antigen; format: cell-based; conditions: Human immunodeficiency virus 1, in vitro
Source text: as §1, §2

[2] = test system: HIV viruses (CEM-IW cell line); test: in vitro anti-HIV assay in CEM-IW cell line; format: cell-based; conditions: Human immunodeficiency virus 1
Source text: as §1, §2

reverse transcriptase = reverse transcriptase (Human immunodeficiency virus type 1 group M subtype B, UniProt P04585); test: inhibition of reverse transcriptase; format: biochemical; conditions: in vitro
Source text: as §1

[3] = test system: HIV viruses (T-lymphocytes); test: protection of T-lymphocytes against the cytopathic effect of HIV viruses; format: cell-based

Cc1cn([C@H]2C[C@H](N=[N+]=[N-])[C@@H](CO)O2)c(=O)[nH]c1=O [AZT, 3-azide-3'-deoxythymidine, reference compound]
dosage needed relative to the compound of the present invention ([1]; cell line C8166, higher dosage needed): 100 fold

O=S1(c2ccccc2)=NC(=S)Nc2ccccc21 (stereo not drawn) [Example 1, 3,4-Dihydro-1-phenyl-3-thio-1,2,4-benzothiadiazine 1-oxide]
EC50 (HIV viruses): ~1650 nM
EC50 [2]: ~2000 nM
IC50 (reverse transcriptase): 2000 nM
values found for the cell line C8166 compared with the other cell line values ([1]; cell line C8166, usually substantially more difficult to protect): comparable values
protection of T-lymphocytes against the cytopathic effect of HIV viruses [3]: complete protection
